Structures are written as SMILES. Starred links: 1 amine or outer side, 2 acyl side, 3 side chain; linkers in the order of their positions; H or OH if unused. Non-standard residues stand in square brackets, D forms with d. Residues, ends and D or L forms follow the SMILES beside them. *: point of attachment. X1 = CC(C)C(C[C@H](O)[C@H](CC1CCCCC1)N[*:1])C(=O)[*:2]; NHCH2(2-pyridyl) = c1ccc(CN*)nc1; Boc = CC(C)(C)OC(=O)*; Aib = CC(C)(N)C(=O)O

For this assay, the target named is T1, purified HIV protease (Human immunodeficiency virus type 1 group M subtype B, UniProt P04585).
T1 construct: purified HIV protease was incubated with synthetic peptide
Kind of assay: HIV-specific protease enzyme test (RP-HPLC analysis of cleavage of a synthetic Gag peptide). It is filed as biochemical. The following applies: substance concentration causing 50% inhibition of protease activity; synthetic peptide substrate imitating Gag cleavage site. The protocol:
The results of the examples shown below were determined by the HIV test system described in the following references [compare Hansen, J., Billich, S., Schulze, T., Sukro, S. and Molling, K. (1988), EMBO Journal, Vol. 7, No. 6, pp. 1785-1791]: purified HIV protease was incubated with synthetic peptide which imitates a cleavage site in the Gag precursor protein and represents an in vivo cleavage site of the HIV protease. The resulting cleavage products of the synthetic peptide were analyzed by means of Reverse Phase High Performance Liquid Chromatography (RP-HPLC). The IC50 values indicated relate to the substance concentration which causes a 50% inhibition of the protease activity under the abovementioned test conditions.

Turning to `CC[C@H](C)[C@H](NC(=O)C(C[C@H](O)[C@H](CC1CCCCC1)NC(=O)[C@H](CC(N)=O)NC(=O)C(C)(C)NC(=O)OC(C)(C)C)C(C)C)C(=O)NCc1ccccn1` (stereo partly drawn) [Example I, Nα-{Nδ-{Nα-{1-[2-(1,1-dimethylethoxycarbonyl)amino-2-methyl]propanoyl}-(S)-asparaginyl}-1-[5-(S)-amino-6-cyclohexyl-4-(S)-hydroxy-2-(1-methyl)ethyl]-hexanoyl}-(S)-isoleucinyl-2-pyridylmethylamide], half-maximal inhibition (IC50) required 500 nM. The same measure for `CC[C@H](C)[C@H](NC(=O)C(C[C@H](O)[C@H](CC1CCCCC1)NC(=O)C(C)(C)NC(=O)OC(C)(C)C)C(C)C)C(=O)NCc1ccccn1` (stereo partly drawn) [Example IV, Nα-{Nδ-{1-[2-(1,1-dimethylethoxycarbonyl)amino-2-methyl]propanoyl}-1-[5-(S)-amino-6-cyclohexyl-4-(S)-hydroxy-2-(1-methyl)ethoyl]hexanoyl}-(S)-isoleucinyl-2-pyridylmethylamide]: 100 nM. The same measure for `CC[C@H](C)[C@H](NC(=O)C(C[C@H](O)[C@H](CC1CCCCC1)NC(=O)[C@H](CC(N)=O)NC(=O)[C@H](Cc1ccccc1)NC(=O)[C@H](CO)NC(=O)C(C)(C)NC(=O)OC(C)(C)C)C(C)C)C(=O)NCc1ccccn1` (some centres unmarked) [III] (Boc-[Aib]SFN[X1]I-{NHCH2(2-pyridyl)}): 5 nM; for `CC[C@H](C)[C@H](NC(=O)C(C[C@H](O)[C@H](CC1CCCCC1)NC(=O)[C@H](CC(N)=O)NC(=O)[C@H](Cc1ccccc1)NC(=O)C(C)(C)NC(=O)OC(C)(C)C)C(C)C)C(=O)NCc1ccccn1` (some centres unmarked) [II] (Boc-[Aib]FN[X1]I-{NHCH2(2-pyridyl)}): 50 nM; for `CC[C@H](C)[C@H](NC(=O)C(C[C@H](O)[C@H](CC1CCCCC1)NC(=O)[C@@H](NC(=O)C(C)(C)NC(=O)OC(C)(C)C)C(C)C)C(C)C)C(=O)NCc1ccccn1` (some centres unmarked) [V]: 50 nM.

Source of the values: patent publication US5145951A, “Peptides retroviral protease inhibitors comprising 2-amino-2-methylpropionic acid” (priority 1990, dated 1992).
